From article PMC11970527 (RSC Chemical Biology, 2025)
Like-named read-outs stand apart in the source and are kept apart here.

Key:
TcdB CPD = TcdB CPD (Clostridioides difficile, UniProt P18177); assay: isothermal calorimetry; format: binding
phytase-4 = assay: stability against phytase-4 by 31P NMR; format: in vitro ADME, wheat; conditions: 4 mM ligand, over 32 h, 100 mM acetate buffer pH 5
VopA = assay: differential scanning fluorimetry; format: binding, Vibrio parahaemolyticus; conditions: DSF, nonlinear curve fit, n = 5
[1] = pH 7.4; cited from earlier work
[2] = Precipitation Assay with CaCl2; format: physicochemical; conditions: 4 mM ligand, pH 7.4, 100 mM tris
AvrA [3] = molecular target: T1, AvrA (Salmonella enterica subsp. enterica serovar Typhimurium, UniProt E8XKZ3); conditions: read-out: Kd previously described; cited from earlier work
T1 sequence (E8XKZ3 1-301): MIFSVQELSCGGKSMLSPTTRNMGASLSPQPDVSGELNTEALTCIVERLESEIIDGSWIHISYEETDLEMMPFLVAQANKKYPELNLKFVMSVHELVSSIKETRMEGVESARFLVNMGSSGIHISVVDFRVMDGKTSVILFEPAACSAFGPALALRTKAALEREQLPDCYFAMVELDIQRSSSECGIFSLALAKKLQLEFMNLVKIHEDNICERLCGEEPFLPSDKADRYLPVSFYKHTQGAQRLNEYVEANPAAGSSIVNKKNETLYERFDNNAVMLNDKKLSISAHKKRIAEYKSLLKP

AvrA [4] = molecular target: T1, AvrA; assay: isothermal calorimetry; format: binding

Chain of TcdB CPD (P18177 543-799 limits assumed): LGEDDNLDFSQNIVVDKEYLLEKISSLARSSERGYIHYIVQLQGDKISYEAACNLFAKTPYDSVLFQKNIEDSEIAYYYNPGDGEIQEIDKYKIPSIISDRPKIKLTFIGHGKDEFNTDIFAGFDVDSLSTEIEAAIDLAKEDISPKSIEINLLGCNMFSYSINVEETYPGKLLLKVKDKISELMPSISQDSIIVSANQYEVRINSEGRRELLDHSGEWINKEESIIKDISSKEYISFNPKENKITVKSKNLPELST

In the case of O=P(O)(O)O[C@H]1[C@H](OP(=O)(O)O)[C@@H](OP(=O)(O)O)[C@H](OP(=O)(O)O)[C@@H](OP(=O)(O)O)[C@H]1OP(=O)(O)O [IP6, myo-inositol hexakisphosphate], the Kd (TcdB CPD) is reported as 1.92 µM, the koff (TcdB CPD) is reported as 0.0409 s⁻¹ and the ΔH (TcdB CPD; TcdB CPD, ITC, 20 °C, mean (SD)) is reported as −22.94 (0.05) kcal mol^−1. The “stability in the presence of phytase-4” value (phytase-4) was “hydrolysed within the first hour”, the “Maximal ΔTM” value (VopA) was 12.4 °C and the net charge [1] was −8. The “CaCl2 concentration that induces precipitation (X0)” value [2] was 4 mM, the Kd (AvrA [3]) was 5.18 µM and the koff (AvrA [4]) was 0.00171 s⁻¹. The ΔH (AvrA [4]; AvrA, ITC, 20 °C, mean (SD)) was −21.09 (0.12) kcal mol^−1 and the Kd (AvrA [4]; K d, AvrA, ITC, 20 °C, mean (SD)) was 0.139 µM.
